Measurements taken from ChEMBL document CHEMBL1201862, “PubChem BioAssay data set” (2004).
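Values below derive from 48-hour exposures of cells grown in 96-well plates, with endpoints linearly interpolated between the two concentrations bracketing the appropriate inhibition level. Here, GI50 denotes the concentration required for 50% inhibition of growth.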 The source made the active and inactive calls. Cut-off read from the data, not from the text of the source: active = GI50 up to about 1.1 µM and inactive = higher.

What was measured:
Assay in all cases: NCI-60 cell line screen, 48 h
[1] = system: TK-10
[2] = system: SR
[3] = system: SNB-78
[4] = system: HCT-15
[5] = system: SN12C
[6] = system: XF498
[7] = system: CCRF-CEM
[8] = system: RPMI-8226
[9] = system: LOX IMVI
[10] = system: ACHN
[11] = system: SNB-19
[12] = system: A549
[13] = system: LXFL 529
[14] = system: HCT-116
[15] = system: SK-MEL-5
[16] = system: A498
[17] = system: SK-MEL-28
[18] = system: SF-268
[19] = system: UACC-62
[20] = system: MOLT-4
[21] = system: OVCAR-3
[22] = system: DLD-1
[23] = system: M14
[24] = system: NCI-H460
[25] = system: NCI-H226
[26] = system: HCC 2998
[27] = system: U-251
[28] = system: Malme-3M
[29] = system: UO-31
[30] = system: SF-295
[31] = system: K562
[32] = system: HOP-62
[33] = system: NCI-H23
[34] = system: DMS-273
[35] = system: 786-0
[36] = system: HL-60
[37] = system: UACC-257
[38] = system: SNB-75
[39] = system: RXF 393
[40] = system: IGROV-1
[41] = system: SF-539
[42] = system: SK-OV-3
[43] = system: SW-620
[44] = system: OVCAR-8
[45] = system: OVCAR-5
[46] = system: SK-MEL-2
[47] = system: RXF 631
[48] = system: HT-29
[49] = system: KM12
[50] = system: DMS-114
[51] = system: HOP-92
[52] = system: CAKI-1
[53] = system: EKVX
[54] = system: M19-MEL
[55] = system: OVCAR-4
[56] = system: COLO 205
[57] = system: NCI-H522
[58] = system: HOP-18
[59] = system: KM-20L2

Measured: GI50

CN1C(=O)CNS1(=O)=O
inactive: [1] > 100 µM | [2] > 100 µM | [3] > 100 µM | [5] > 100 µM | [6] > 100 µM | [7] > 100 µM | [8] > 100 µM | [9] > 100 µM | [10] > 100 µM | [11] > 100 µM | [12] > 100 µM | [13] > 100 µM | [14] > 100 µM | [15] > 100 µM | [16] > 100 µM | [17] > 100 µM | [18] > 100 µM | [19] > 100 µM | [20] > 100 µM | [21] > 100 µM | [22] > 100 µM | [23] > 100 µM | [24] > 100 µM | [25] > 100 µM | [26] > 100 µM | [27] > 100 µM | [28] > 100 µM | [29] > 100 µM | [30] > 100 µM | [31] > 100 µM | [32] > 100 µM | [33] > 100 µM | [34] > 100 µM | [35] > 100 µM | [36] > 100 µM | [37] > 100 µM | [38] 38.1 µM | [39] > 100 µM | [40] > 100 µM | [41] > 100 µM | [42] > 100 µM | [43] > 100 µM | [44] > 100 µM | [45] > 100 µM | [46] > 100 µM | [47] > 100 µM | [48] > 100 µM | [49] > 100 µM | [50] > 100 µM | [51] > 100 µM
> 100 µM: [4]

COc1ccc2ccccc2c1C1=NC(C)(C)CO1
inactive: [1] > 100 µM | [2] > 100 µM | [52] > 100 µM | [5] > 100 µM | [53] > 100 µM | [6] > 100 µM | [7] > 100 µM | [8] > 100 µM | [10] > 100 µM | [11] > 100 µM | [12] > 100 µM | [13] > 100 µM | [14] > 100 µM | [15] > 100 µM | [54] > 100 µM | [17] > 100 µM | [55] > 100 µM | [18] > 100 µM | [19] > 100 µM | [20] > 100 µM | [21] > 100 µM | [22] > 100 µM | [23] > 100 µM | [24] > 100 µM | [25] > 100 µM | [27] > 100 µM | [28] > 100 µM | [29] > 100 µM | [30] > 100 µM | [31] > 100 µM | [56] > 100 µM | [32] > 100 µM | [33] > 100 µM | [35] > 100 µM | [36] > 100 µM | [57] > 100 µM | [37] > 100 µM | [38] > 100 µM | [39] > 100 µM | [40] > 100 µM | [58] > 100 µM | [59] > 100 µM | [41] > 100 µM | [42] > 100 µM | [43] > 100 µM | [44] > 100 µM | [46] > 100 µM | [47] > 100 µM | [48] > 100 µM | [49] > 100 µM | [51] 98.9 µM
> 100 µM: [4]

COc1cccc(/C=C/c2cc(OC)c(OC)c(OC)c2)c1
53 µM: [4]
inactive: [2] 35.1 µM | [3] 21.8 µM | [5] 52.2 µM | [53] 36.2 µM | [6] 33.7 µM | [7] 33.7 µM | [8] 34 µM | [10] 87.5 µM | [11] 42.9 µM | [12] 42.3 µM | [13] 61.7 µM | [14] 33 µM | [15] 24.8 µM | [54] 70.1 µM | [16] 57 µM | [17] 38.5 µM | [18] 68.9 µM | [19] 25.4 µM | [20] 36.6 µM | [21] 26.8 µM | [22] 18.3 µM | [23] 23.8 µM | [24] 43.4 µM | [25] 18.4 µM | [26] > 100 µM | [27] 36.5 µM | [28] 34.8 µM | [29] 21.2 µM | [31] 33.3 µM | [56] 34.4 µM | [32] 37 µM | [33] 30.3 µM | [34] 27.8 µM | [35] 30.5 µM | [57] > 100 µM | [37] 38.3 µM | [38] 18.5 µM | [40] 47.2 µM | [59] 19.3 µM | [41] 24.4 µM | [42] 38.2 µM | [43] 50.4 µM | [44] 55.6 µM | [45] > 100 µM | [46] 62.7 µM | [47] 23.7 µM | [48] 34.4 µM | [49] 66.4 µM | [50] 24.9 µM | [51] > 100 µM
